Source: patent US20210205264A1, “USE OF DELTA-TOCOTRIENOL FOR TREATING CANCER” (H. LEE MOFFITT CANCER CENTER & RESEARCH INSTITUTE INC., priority 2018, published 2021)
Peptide text beside a SMILES is read from it. * marks the point of attachment. Cbz = O=C(OCc1ccccc1)*

Assays:
β-catenin = β-catenin immunofluorescence and Western blot in CCSCs; format: cell-based, human; conditions: MG132 25 μM, 3-methyladenine 10 mM, caspase 3 inhibitor 20 μM, calpain II inhibitor 25 μM
Source text: FIGS. 9A, 9B, 9C, and 9D show quantification of β-catenin in the nucleus and cytoplasm of CCSCs with confocal microscopy (FIGS. 9A & 9B) after treatment with vehicle, aspirin, d-T3, and aspirin+d-T3.
As noted above, stability of the β-catenin complex by inactivation of APC leads to stabilization and nuclear translocation of β-catenin and to transcriptional activation of β-catenin target genes such as c-Myc and cyclin D1. […] Furthermore, d-T3 inhibition of CCSCs is associated with the downregulation of β-catenin, c-Myc, cyclin D1, and survivin as measured by Western blot in CCSCs (FIG. 9D).

CCSCs [1] = test: Annexin V FITC/PI flow cytometry apoptosis assay in CCSCs; format: cell-based, human; conditions: CCSCs
Experimental: (§1) FIGS. 10A, 10B, 10C, and 10D show induction of apoptosis measured by flow cytometry (FIG. 10A) and confocal microscopy (FIG. 10B) in CCSCs after treatment with vehicle, aspirin, d-T3, and aspirin+d-T3. Effect of BID inhibitor on apoptosis in CCSCs after treatment with aspirin or d-T3 (FIG. 10C). Induction oft-BID in CCSCs after treatment with vehicle, aspirin, d-T3, and aspirin+d-T3 (FIG. 10D).
(§2) d-T3 can induce selective killing of CCSCs through the BH3 interacting-domain death agonist (BID). […] It should be noted that these in vitro results are consistent with the in vivo observation of the selective induction of apoptosis in APC mutant colon crypt cells in the ApcMin/+ mice but not in the normal intestinal cells of the AOM rat CRC model or NOD/SCID mice. […] Although the proapoptotic activity of d-T3 is a consistent observation of d-T3 anticancer activity in all of the published reports, the mechanism by which d-T3 induces apoptosis is poorly understood. Apoptotic death is regulated by the death receptor (extrinsic) and mitochondrial (intrinsic) pathways. These 2 pathways crosstalk under certain conditions through caspase-8-mediated cleavage of BID, a BH3-only Bcl-2 family member. The activated and truncated BID (tBID) then engages the intrinsic pathway for efficient apoptosis induction. To obtain preliminary information regarding the mechanisms by which d-T3 induces apoptosis in CCSCs, the activation of BID was measured after 24-hour treatment with vehicle, aspirin (5 mM), d-T3 (50 μM), and aspirin combined with d-T3 in CCSCs by Western blotting.

hCAS [2] = target: T1, hCAS (Homo sapiens, UniProt P55060); test: Competitive affinity-isolation of hCAS in MiaPaCa-2 cell lysate; format: binding; conditions: excess free compound
T1 construct: endogenous in cells; host or cells: MiaPaCa-2 human pancreatic cancer cells
T1 sequence (P55060 1-971): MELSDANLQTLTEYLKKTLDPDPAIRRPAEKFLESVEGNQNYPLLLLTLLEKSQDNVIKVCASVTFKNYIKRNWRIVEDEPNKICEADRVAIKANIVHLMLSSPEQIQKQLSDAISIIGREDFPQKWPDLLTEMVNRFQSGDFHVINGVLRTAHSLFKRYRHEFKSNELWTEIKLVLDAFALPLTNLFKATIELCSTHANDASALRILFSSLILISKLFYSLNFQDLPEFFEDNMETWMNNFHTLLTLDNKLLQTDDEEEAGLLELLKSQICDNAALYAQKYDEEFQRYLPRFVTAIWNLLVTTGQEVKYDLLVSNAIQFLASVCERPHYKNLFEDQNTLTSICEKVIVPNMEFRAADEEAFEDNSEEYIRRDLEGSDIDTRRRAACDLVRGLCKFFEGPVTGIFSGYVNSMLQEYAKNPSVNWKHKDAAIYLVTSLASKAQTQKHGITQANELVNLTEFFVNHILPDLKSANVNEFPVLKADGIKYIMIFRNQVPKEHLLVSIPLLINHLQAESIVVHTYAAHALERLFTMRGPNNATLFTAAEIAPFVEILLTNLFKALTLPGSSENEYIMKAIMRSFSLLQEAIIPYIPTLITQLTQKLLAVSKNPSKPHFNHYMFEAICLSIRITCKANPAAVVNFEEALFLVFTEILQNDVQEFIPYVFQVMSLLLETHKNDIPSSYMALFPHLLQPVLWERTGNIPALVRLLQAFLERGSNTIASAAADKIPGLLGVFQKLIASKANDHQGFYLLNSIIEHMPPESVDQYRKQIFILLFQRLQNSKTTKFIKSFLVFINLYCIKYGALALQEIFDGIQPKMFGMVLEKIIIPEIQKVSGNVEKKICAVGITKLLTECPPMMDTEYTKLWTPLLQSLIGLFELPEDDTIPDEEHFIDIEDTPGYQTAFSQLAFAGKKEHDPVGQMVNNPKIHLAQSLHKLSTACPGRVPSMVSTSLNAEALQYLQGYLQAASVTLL
Experimental: This experiment used a synthetic biotin-δ-tocotrienol conjugate (shown below to inhibit growth activity of cultured MiaPaca-2 human pancreatic cancer cells) to confirm affinity-isolation of hCAS. To confirm that δ-T3 binds to hCAS in intact cells, biotinylated δ-T3 (B-δ-T3) was prepared by chemically coupling the —OH group of δ-T3 to the —COOH of biotin using a PEG-iodoactamide linker (FIG. 18). […] Affinity-isolation of hCAS was inhibited in the presence of free δ-tocotrienol but not with free δ-tocopherol.

MiaPaCa-2 cell = MiaPaCa-2 cell viability at increasing concentrations; format: cell-based, human; conditions: increasing concentrations
colon polyps = conditions: patients with stage I-III colon cancer following treatment; 27% without aspirin; cited from earlier work
BID = test: Activation of BID (tBID) by Western blotting in CCSCs; format: cell-based, human; conditions: 24-hour treatment; aspirin 5 mM, d-T3 50 μM
Experimental: as §1
as §2, with “These 2 pathways crosstalk under certain conditions through caspase-8-mediated cleavage of BID, a BH3-only Bcl-2 family member. The activated and truncated BID (tBID) then engages the intrinsic pathway for efficient apoptosis induction.” left out

[3] = test system: intestinal stem cells of ApcMin/+ mice; test: Caspase 3 staining of intestinal crypts in ApcMin/+ mice; format: in vivo; conditions: small intestinal crypts of ApcMin/+ mice
Source text: (§3) Although substantial preclinical evidence exists regarding the preventive activity of d-T3 and g-T3 in various types of cancers, there is no report of d-T3 prevention of colon cancer despite evidence of activity in colon cell lines and xenograft models. […] Treatment with aspirin alone reduced adenoma formation by 38%, and treatment with d-T3 alone reduced adenoma formation by 44%, while treatment with the combination of aspirin and d-T3 reduced adenoma formation by 58%.

ApcMin/+ mice = test: Adenoma (intestinal polyp) formation in ApcMin/+ mice; format: in vivo
Source text: as §3, with “FIGS. 1A and 1B show the number of intestinal polyps (FIG. 1A) and H&E staining of polyps (FIG. 1B) in ApcMin/+ mice treated with vehicle (V), aspirin (Asp), d-T3, and combination of aspirin+d-T3. Black dots in FIG. 1B point out polyps in the intestine. Although” for “Although”

human CCSCs = test: Orthotopic (cecum) model of luciferase expressing human CCSCs in NOD-SCID mice; format: in vivo
Experimental: FIGS. 8A, 8B, 8C, and 8D show growth of cecal tumor volume (FIGS. 8A & 8B) and liver metastasis score (FIGS. 8C & 8D) in orthotopic model of CCSCs after treatment with vehicle, aspirin, d-T3, and aspirin+d-T3.
In vivo model of human CCSC were developed by implanting the stably transfected luciferase expressing CCSCs in the cecum of NOD-SCID mice. In this model, tumor growth, metastasis, and survival are monitored twice weekly by IP injection of luciferin (150 mg/kg body weight) and imaged using the IVIS 200 Bioluminescence imaging system. […] These findings strongly indicate that d-T3 targets CCSCs and enhances the ability of aspirin to target these cells.

CCSCs [4] = test: miRNA profiles in CCSCs; format: cell-based, human; conditions: 24-hour treatment; aspirin 5 mM, d-T3 10 μM
Source text: Given the results, and without intending to be bound by any theory, it appears that the induction of apoptosis can be one mechanism by which d-T3 prevents CRC and augments CRC prevention activity. BID knockout can diminish this effect. The biorepository as well as materials generated from studies can be used to explore other mechanisms of d-T3 action such as anti-inflammatory, mediation of the immune system, anti-angiogenesis, and alterations in metabolism. To this end, miRNA profiles were conducted that are altered with d-T3, aspirin, and d-T3 with aspirin treatment in CCSCs. To discover early miRNAs that are likely to influence activity, these cells were deliberately treated with doses of these agents at a duration when there were no phenotypic changes of apoptosis.

hCAS [5] = target: T1, hCAS; test: Streptavidin bead capture of hCAS from treated MiaPaCa-2 cells; format: binding; conditions: MiaPaCa-2 cells treated 24 hours
Experimental: To confirm that δ-T3 binds to hCAS in intact cells, biotinylated δ-T3 (B-δ-T3) was prepared by chemically coupling the —OH group of δ-T3 to the —COOH of biotin using a PEG-iodoactamide linker (FIG. 18).
MiaPaCa-2 human pancreatic cancer cells were treated for 24 hours with biotin alone (B), B-δ-T3 or B-TOCOPH. The cells were then lysed, and the lysates incubated with streptavidin beads, and the captured proteins processed for Western blotting.

In the case of `Cn1cnc(N)c2ncnc1-2` [3-methyladenine, reference compound], the “effect on d-T3 induced degradation of β-catenin” value (β-catenin) is reported as “inhibited”.

For `COc1ccc(S(=O)(=O)NCCCC(=O)Nc2ccc(Sc3ccc(N)cc3)cc2)cc1` [BI-6C9], the “effect of BID inhibitor on induction of apoptosis by aspirin” value (CCSCs [1]) was “not” and the “effect of BID inhibitor on induction of apoptosis by d-T3” value (CCSCs [1]) was “negates the induction of apoptosis”.

With `CC(C)C[C@@H](C=O)NC(=O)[C@H](CC(C)C)NC(=O)[C@H](CC(C)C)NC(=O)OCc1ccccc1` [MG132, reference compound] (Cbz-Leu-Leu-Leu-aldehyde) the “effect on d-T3 induced degradation of β-catenin” value (β-catenin) was “inhibited”.

For `Cc1cc(O)cc2c1O[C@](C)(CCC[C@H](C)CCC[C@H](C)CCCC(C)C)CC2` [TOCOPH, δ-Tocopherol, reference compound], the “affinity-isolation of hCAS / hCAS binding to biotin-T3 in presence of free competitor” value (hCAS [2]) was “does not”, the “affinity-isolation of hCAS / hCAS binding to biotin-T3 in presence of free competitor” value (hCAS [2]; listed as δ-tocopherol) was “not” and the “effect on cell viability” value (MiaPaCa-2 cell) was “least effect”.

For `CC(=O)Oc1ccccc1C(=O)O` [aspirin, reference compound], the “rate of polyp formation at 1-year colonoscopy” value (colon polyps) is listed as 17%, the “activation of tBID” value (BID) is listed as “did not” and the “apoptosis detected by caspase 3 staining” value [3] is listed as “minimal to no staining”. The reduced adenoma formation (ApcMin/+ mice) was 38%, the “growth of human CRC stem cells (cecal tumor)” value (human CCSCs) was “inhibited” and the “metastases of human CRC stem cells” value (human CCSCs; liver metastasis) was “inhibited”. For the same molecule, the “down-regulation of miRNAs compared with vehicle (number)” value (CCSCs [4]) was 4 miRNAs and the “up-regulation of miRNAs compared with vehicle (number)” value (CCSCs [4]) was 2 miRNAs.

In the case of `O=C(O)CCCC[C@@H]1SC[C@@H]2NC(=O)N[C@@H]21` [biotin], the “hCAS bound by streptavidin beads from lysates of treated cells” value (hCAS [5]) is reported as “not”.
